Measurements published in the Kinase Knowledgebase extract (Sharma et al. 2016).

target: MAPK14;MAPK11;MAPK12;MAPK13 (human) (UniProt Q16539); experiment: Assessment of MAPK11/MAPK12/MAPK13/MAPK14 Kinase Activity

IC50, < 25 nM:
Cc1c(F)cc(C(=O)NC2CC2)cc1-c1ccn2c(-c3ccccc3C(F)(F)F)nnc2c1, Cc1ccc(C(=O)NC2CC2)cc1-c1ccn2c(NC(C)C)nnc2c1, Cc1cccc(Cl)c1-c1nnc2cc(-c3cc(C(=O)NC4CC4)cc(F)c3C)ccn12, Cc1ccc(C(=O)Nc2ccnn2C)cc1-c1ccn2c(C3(C(F)(F)F)CC3)nnc2c1, Cc1c(F)cc(C(=O)NC2CC2)cc1-c1ccn2c(-c3c(F)cccc3Cl)nnc2c1, Cc1c(F)cc(C(=O)NC2CC2)cc1-c1ccn2c(-c3ccncc3Cl)nnc2c1, Cc1ccc(C(=O)Nc2ccnn2C)cc1-c1ccn2c(-c3cc(F)cc(F)c3)ncc2c1, Cc1ccc(C(=O)NC2CC2)cc1-c1ccn2c(C(C)C)nnc2c1, COc1ccccc1-c1nnc2cc(-c3cc(C(=O)NC4CC4)ccc3C)ccn12, Cc1ccc(C(=O)NC2CC2)cc1-c1ccn2c(-c3ccccc3)nnc2c1, CCc1ccccc1-c1nnc2cc(-c3cc(C(=O)NC4CC4)ccc3C)ccn12, Cc1ccc(C(=O)NC2CC2)cc1-c1ccn2c(-c3c(F)cccc3C(F)(F)F)nnc2c1, Cc1ccc(C(=O)NC2CC2)cc1-c1cc2nnc(-c3ccccc3Cl)n2cc1C, Cc1ccc(C(=O)Nc2ccnn2C)cc1-c1ccn2c(-c3cccc(F)c3Cl)nnc2c1, Cc1ccc(C(=O)NC2CC2)cc1-c1ccn2c(N3CCCCC3)nnc2c1, Cc1ccc(C(=O)NC2CC2)cc1-c1ccn2c(-c3cccc(F)c3Cl)nnc2c1, Cc1ccc(C(=O)Nc2ccnn2C)cc1-c1ccn2c(-c3ccc(F)cc3C)ncc2c1, Cc1ccc(C(=O)NC2CC2)cc1-c1ccn2c(C3(C(F)(F)F)CC3)nnc2c1, Cc1ccc(C(N)=O)cc1-c1ccn2c(-c3ccccc3Cl)nnc2c1, Cc1ncoc1-c1nnc2cc(-c3cc(C(=O)NC4CC4)cc(F)c3C)ccn12, Cc1ccc(C(=O)Nc2ccnn2C)cc1-c1ccn2c(-c3cc(F)c(F)cc3Cl)nnc2c1, Cc1ccc(C(=O)NC2CC2)cc1-c1ccn2c(-c3ccc(F)cc3C)ncc2c1, Cc1ccc(C(=O)NC2(C)CC2)cc1-c1ccn2c(-c3ccccc3Cl)nnc2c1, Cc1ccc(C(=O)NC2CC2)cc1-c1cc(C)n2c(-c3ccccc3Cl)nnc2c1, Cc1ccc(C(=O)NC2CC2)cc1-c1ccn2c(-c3c(F)cccc3Cl)nnc2c1, Cc1ccc(C(=O)NC2CC2)cc1-c1ccn2c(-c3ccccc3C(F)(F)F)nnc2c1, Cc1ccc(C(=O)NC2CC2)cc1-c1ccn2c(-c3sccc3C)nnc2c1, Cc1ccc(C(=O)NC2CC2)cc1-c1ccn2c(-c3sccc3Cl)nnc2c1, Cc1ccc(C(=O)Nc2ccon2)cc1-c1ccn2c(-c3c(F)cccc3F)nnc2c1, Cc1c(F)cc(C(=O)Nc2ccon2)cc1-c1ccn2c(-c3c(F)cccc3F)nnc2c1, Cc1c(F)cc(C(=O)NC2CC2)cc1-c1ccn2c(-c3c(F)cccc3F)nnc2c1, Cc1ccc(C(=O)Nc2ccnn2C)cc1-c1ccn2c(-c3ccccc3F)nnc2c1, Cc1cc(F)c(C(=O)NC2CC2)cc1-c1ccn2c(-c3ccccc3Cl)nnc2c1, Cc1ccc(C(=O)Nc2ccnn2C)cc1-c1ccn2c(-c3ccccc3Cl)ncc2c1, Cc1ccc(C(=O)NC2CC2)cc1-c1ccn2c(Cc3ccccc3)nnc2c1, Cc1ccc(C(=O)Nc2ccnn2C)cc1-c1ccn2c(-c3cnccc3C(F)(F)F)ncc2c1, Cc1ccc(C(=O)Nc2ccnn2C)cc1-c1ccn2c(-c3ccc(F)cc3C)nnc2c1, Cc1ccc(C(=O)NC2CC2)cc1-c1ccn2c(-c3c(C)cccc3Cl)nnc2c1, Cc1ccc(C(=O)NC2CC2)cc1-c1ccn2c(-c3c(Cl)cccc3Cl)nnc2c1, Cc1ccc(C(=O)NC2CC2)cc1-c1ccn2c(-c3cc(F)ccc3Cl)nnc2c1, Cc1ccc(C(=O)NC2CC2)cc1-c1ccn2c(C(C)(C)C)nnc2c1, Cc1ccc(C(=O)Nc2ccnn2C)cc1-c1ccn2c(-c3ccccc3Cl)nnc2c1, Cc1ccc(C(=O)NC2CC2)cc1-c1ccn2c(C3CCCC3)nnc2c1, Cc1ccc(C(=O)NC2CC2)cc1-c1ccn2c(C3CCCCC3)nnc2c1, Cc1ccc(C(=O)NC2CC2)cc1-c1ccn2c(-c3ccc(F)cc3C)nnc2c1, Cc1ccc(C(=O)NC2CC2)cc1-c1ccn2c(-c3c(C)cccc3F)nnc2c1, Cc1ccc(C(=O)NC2CC2)cc1-c1ccn2c(-c3ccc(F)cc3Cl)nnc2c1, Cc1c(F)cc(C(=O)NC2CC2)cc1-c1ccn2c(-c3ccccc3Cl)nnc2c1, Cc1ccc(C(=O)NC2CC2)cc1-c1ccn2c(C34C[C@H]5C[C@@H](C3)C[C@@H](C4)C5)nnc2c1, Cc1ccc(C(=O)NC2CC2)cc1-c1ccn2c(C3CC3)nnc2c1, Cc1ccc(C(=O)NC2CC2)cc1-c1ccn2c(N3CCCC3)nnc2c1, Cc1ccc(C(=O)Nc2ccnn2C)cc1-c1ccn2c(C(C)C)nnc2c1, Cc1c(F)cc(C(=O)NC2CC2)cc1-c1ccn2c(-c3c(Cl)cccc3Cl)nnc2c1, CCNC(=O)c1ccc(C)c(-c2ccn3c(-c4ccccc4Cl)nnc3c2)c1, Cc1ccc(C(=O)NC2CC2)cc1-c1ccn2c(-c3ccccc3C)nnc2c1, Cc1ccc(C(=O)NC2CC2)cc1-c1ccn2c(C3CCOCC3)nnc2c1, Cc1cccc(F)c1-c1nnc2cc(-c3cc(C(=O)NC4CC4)cc(F)c3C)ccn12, Cc1ccc(C(=O)NC2CC2)cc1-c1ccn2c(Nc3ccccc3)nnc2c1, Cc1ccccc1-c1nnc2cc(-c3cc(C(=O)NC4CC4)cc(F)c3C)ccn12, Cc1ccc(C(=O)NC2CC2)cc1-c1ccn2c(CC(C)(C)C)nnc2c1, Cc1ccc(C(=O)NC2CC2)cc1-c1ccn2c(-c3ccccc3Cl)nnc2c1, Cc1ccc(C(=O)Nc2ccnn2C)cc1-c1cc2nnc(-c3ccccc3Cl)n2cc1C, Cc1ccc(C(=O)NC2CC2)cc1-c1ccn2c(-c3ccccc3F)nnc2c1, Cc1ccc(C(=O)Nc2ccnn2C)cc1-c1ccn2c(-c3ccc(F)cc3Cl)nnc2c1, Cc1ccc(C(=O)NC2CC2)cc1-c1ccn2c(N(C)c3ccccc3)nnc2c1, Cc1ccc(C(=O)NC2CC2)cc1-c1ccn2c(-c3ccncc3Cl)nnc2c1, Cc1ccc(C(=O)Nc2ccnn2C)cc1-c1ccn2c(-c3cc(F)ccc3Cl)nnc2c1, Cc1c(F)cc(C(=O)NC2CC2)cc1-c1ccn2c(C(C)(C)C)nnc2c1, Cc1ccc(C(=O)NC2CC2)cc1-c1ccn2c(-c3ccc(S(C)(=O)=O)cc3Cl)nnc2c1, Cc1ccc(C(=O)NC2CC2)cc1-c1ccn2c(-c3cc(F)c(F)cc3Cl)nnc2c1, Cc1ccc(C(=O)Nc2ccnn2C)cc1-c1ccn2c(-c3sccc3C)nnc2c1
